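A five-concentration, 48-hour dose response in 96-well plates underlies each endpoint, interpolated linearly between surrounding concentrations. GI50 marks 50% less growth. TGI: total growth inhibition.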
Legend:
Test in all cases: inhibition of tumour cell growth, NCI panel, 48 h; in the data active = GI50 below about 0.43 µM; inactive = the rest
UACC-257 melanoma = tested on: UACC-257 melanoma
A498 renal = tested on: A498 renal
OVCAR-8 ovarian = tested on: OVCAR-8 ovarian
NCI-H23 lung = tested on: NCI-H23 lung
KM12 colon = tested on: KM12 colon
SW-620 colon = tested on: SW-620 colon
HT29 colon = tested on: HT29 colon
SK-MEL-5 melanoma = tested on: SK-MEL-5 melanoma
SK-OV-3 ovarian = tested on: SK-OV-3 ovarian
SNB-75 CNS = tested on: SNB-75 CNS
ACHN renal = tested on: ACHN renal
SR leukemia = tested on: SR leukemia
HCT-116 colon = tested on: HCT-116 colon
HCC-2998 colon = tested on: HCC-2998 colon
HCT-15 colon = tested on: HCT-15 colon
DU-145 prostate = tested on: DU-145 prostate
U251 CNS = tested on: U251 CNS
PC-3 prostate = tested on: PC-3 prostate
T-47D breast = tested on: T-47D breast
RPMI-8226 leukemia = tested on: RPMI-8226 leukemia
A549 NSCLC = tested on: A549 NSCLC
IGROV1 ovarian = tested on: IGROV1 ovarian
M14 melanoma = tested on: M14 melanoma
HS 578T breast = tested on: HS 578T breast
NCI/ADR-RES ovarian = tested on: NCI/ADR-RES ovarian
OVCAR-4 ovarian = tested on: OVCAR-4 ovarian
SK-MEL-2 melanoma = tested on: SK-MEL-2 melanoma
CCRF-CEM leukemia = tested on: CCRF-CEM leukemia
SF-539 CNS = tested on: SF-539 CNS
COLO 205 colon = tested on: COLO 205 colon
NCI-H226 lung = tested on: NCI-H226 lung
SF-295 CNS = tested on: SF-295 CNS
EKVX NSCLC = tested on: EKVX NSCLC
OVCAR-5 ovarian = tested on: OVCAR-5 ovarian
RXF 393 renal = tested on: RXF 393 renal
MDA-MB-231 breast = tested on: MDA-MB-231 breast
BT-549 breast = tested on: BT-549 breast
NCI-H522 lung = tested on: NCI-H522 lung
786-0 renal = tested on: 786-0 renal
CAKI-1 renal = tested on: CAKI-1 renal
MALME-3M melanoma = tested on: MALME-3M melanoma
OVCAR-3 ovarian = tested on: OVCAR-3 ovarian
MDA-MB-435 = tested on: MDA-MB-435
K-562 leukemia = tested on: K-562 leukemia
HOP-62 NSCLC = tested on: HOP-62 NSCLC
LOX IMVI melanoma = tested on: LOX IMVI melanoma
SN12C renal = tested on: SN12C renal
UACC-62 melanoma = tested on: UACC-62 melanoma
UO-31 renal = tested on: UO-31 renal
TK-10 renal = tested on: TK-10 renal
HL-60(TB) leukemia = tested on: HL-60(TB) leukemia
SK-MEL-28 melanoma = tested on: SK-MEL-28 melanoma

CO/N=C(\COc1ccc2c(=O)cc(-c3ccccc3)oc2c1)c1ccc(F)cc1
> 100 µM: TGI (UACC-257 melanoma) | TGI (A498 renal) | TGI (OVCAR-8 ovarian) | TGI (NCI-H23 lung) | TGI (KM12 colon) | TGI (SW-620 colon) | TGI (HT29 colon) | TGI (SK-MEL-5 melanoma) | TGI (SK-OV-3 ovarian) | TGI (ACHN renal) | TGI (HCT-116 colon) | TGI (HCT-15 colon) | TGI (DU-145 prostate) | TGI (PC-3 prostate) | TGI (T-47D breast) | TGI (RPMI-8226 leukemia) | TGI (A549 NSCLC) | TGI (M14 melanoma) | TGI (HS 578T breast) | TGI (NCI/ADR-RES ovarian) | TGI (OVCAR-4 ovarian) | TGI (CCRF-CEM leukemia) | TGI (SF-539 CNS) | TGI (COLO 205 colon) | TGI (NCI-H226 lung) | TGI (EKVX NSCLC) | TGI (OVCAR-5 ovarian) | TGI (BT-549 breast) | TGI (K-562 leukemia) | TGI (LOX IMVI melanoma) | TGI (SN12C renal) | TGI (UACC-62 melanoma) | TGI (UO-31 renal) | TGI (TK-10 renal) | TGI (HL-60(TB) leukemia) | TGI (SK-MEL-28 melanoma)
37.1 µM: TGI (MDA-MB-435)
55 µM: TGI (SNB-75 CNS)
62.3 µM: TGI (NCI-H522 lung)
87.5 µM: TGI (RXF 393 renal)
45.9 µM: TGI (MALME-3M melanoma)
65.6 µM: TGI (CAKI-1 renal)
47.7 µM: TGI (OVCAR-3 ovarian)
49.8 µM: TGI (786-0 renal)
inactive: GI50 (UACC-257 melanoma) 32.1 µM | GI50 (A498 renal) > 100 µM | GI50 (OVCAR-8 ovarian) 40.7 µM | GI50 (NCI-H23 lung) 92.7 µM | GI50 (KM12 colon) 53.8 µM | GI50 (SW-620 colon) 42.6 µM | GI50 (HT29 colon) 33.6 µM | GI50 (SK-MEL-5 melanoma) 35.1 µM | GI50 (SK-OV-3 ovarian) 41.4 µM | GI50 (SNB-75 CNS) 24.1 µM | GI50 (ACHN renal) 34 µM | GI50 (SR leukemia) 14.5 µM | GI50 (HCT-116 colon) 28.4 µM | GI50 (HCC-2998 colon) 32.3 µM | GI50 (HCT-15 colon) 63.9 µM | GI50 (DU-145 prostate) 76.1 µM | GI50 (U251 CNS) 29.2 µM | GI50 (PC-3 prostate) 37.9 µM | GI50 (T-47D breast) 68.4 µM | GI50 (RPMI-8226 leukemia) > 100 µM | GI50 (A549 NSCLC) 30.6 µM | GI50 (IGROV1 ovarian) 21.9 µM | GI50 (M14 melanoma) 36.1 µM | GI50 (HS 578T breast) 51.5 µM | GI50 (NCI/ADR-RES ovarian) 34.4 µM | GI50 (OVCAR-4 ovarian) 58.2 µM | GI50 (SK-MEL-2 melanoma) 24 µM | GI50 (CCRF-CEM leukemia) > 100 µM | GI50 (SF-539 CNS) 94.8 µM | GI50 (COLO 205 colon) > 100 µM | GI50 (NCI-H226 lung) > 100 µM | GI50 (SF-295 CNS) 25.8 µM | GI50 (EKVX NSCLC) 74.4 µM | GI50 (OVCAR-5 ovarian) 42.1 µM | GI50 (RXF 393 renal) 27.7 µM | GI50 (MDA-MB-231 breast) 27.7 µM | GI50 (BT-549 breast) > 100 µM | GI50 (NCI-H522 lung) 23.1 µM | GI50 (786-0 renal) 20.7 µM | GI50 (CAKI-1 renal) 22.7 µM | GI50 (MALME-3M melanoma) 19.3 µM | GI50 (OVCAR-3 ovarian) 14 µM | GI50 (MDA-MB-435) 10.3 µM | GI50 (K-562 leukemia) 36.5 µM | GI50 (HOP-62 NSCLC) 21 µM | GI50 (LOX IMVI melanoma) 67.5 µM | GI50 (SN12C renal) 36.2 µM | GI50 (UACC-62 melanoma) 29.8 µM | GI50 (UO-31 renal) > 100 µM | GI50 (TK-10 renal) 41.7 µM | GI50 (HL-60(TB) leukemia) 21 µM | GI50 (SK-MEL-28 melanoma) 89.4 µM
47.2 µM: TGI (SR leukemia)
66.6 µM: TGI (IGROV1 ovarian)
56.9 µM: TGI (SF-295 CNS)
50.5 µM: TGI (HOP-62 NSCLC)
60.4 µM: TGI (SK-MEL-2 melanoma)
88.5 µM: TGI (U251 CNS)
96 µM: TGI (HCC-2998 colon)
64 µM: TGI (MDA-MB-231 breast)
